Patent publication US7115611B2, “Phenyl derivatives, their manufacture and use as pharmaceutical agents” (Hoffmann-la Roche Inc., priority 2003, dated 2006)

melting point	Structure (SMILES)
115 to 117 °C	Cc1cc(SC(C)c2ccc(-c3ccc(C(F)(F)F)cc3)nc2C)ccc1OCC(=O)O (racemic) [Example 17, [rac]-(2-Methyl-4-{1-[2-methyl-6-(4-trifluoromethyl-phenyl)-pyridin-3-yl]-ethylsulfanyl}-phenoxy)-acetic acid]
126 to 128 °C	CCC(Sc1ccc(OCC(=O)O)c(C)c1)c1ccc(-c2ccc(C(F)(F)F)cc2)nc1C (racemic) [Example 18, [rac]-(2-Methyl-4-{1-[2-methyl-6-(4-trifluoromethyl-phenyl)-pyridin-3-yl]-propylsulfanyl}-phenoxy)-acetic acid]
72 to 73 °C	COCCCc1cc(N(C)Cc2ccc(-c3ccc(C(F)(F)F)cc3)nc2C)ccc1OCC(=O)O [Example 1, (2-(3-Methoxy-propyl)-4-{methyl-[2-methyl-6-(4-trifluoromethyl-phenyl)-pyridin-3-ylmethyl]-amino}-phenoxy)-acetic acid]
137 to 138 °C	Cc1cc(N(C)Cc2ccc(-c3ccc(C(F)(F)F)cc3)nc2C)cc(C)c1OCC(=O)O [Example 7, (2,6-Dimethyl-4-{methyl-[2-methyl-6-(4-trifluoromethyl-phenyl)-pyridin-3-ylmethyl]-amino}-phenoxy)-acetic acid]
149 to 151 °C	Cc1cc(OCc2ccc(-c3ccc(C(F)(F)F)cc3)nc2)ccc1OC(C)(C)C(=O)O [Example 9, 2-Methyl-2-{2-methyl-4-[6-(4-trifluoromethyl-phenyl)-pyridin-3-ylmethoxy]-phenoxy}-propionic acid]
146 to 148 °C	Cc1cc(OCc2ccc(-c3ccc(OC(F)(F)F)cc3)nc2)ccc1OC(C)(C)C(=O)O [Example 10, 2-Methyl-2-{2-methyl-4-[6-(4-trifluoromethoxy-phenyl)-pyridin-3-ylmethoxy]-phenoxy}-propionic acid]
174 to 176 °C	Cc1cc(N(C)Cc2ccc(-c3ccc(Cl)cc3)nc2)ccc1OCC(=O)O [Example 12, (4-{[6-(4-Chloro-phenyl)-pyridin-3-ylmethyl]-methyl-amino}-2-methyl-phenoxy)-acetic acid]
137 to 138 °C	Cc1cc(N(C)Cc2ccc(-c3ccc(OC(F)(F)F)cc3)nc2)ccc1OCC(=O)O [Example 13, (2-Methyl-4-{methyl-[6-(4-trifluoromethoxy-phenyl)-pyridin-3-ylmethyl]-amino}-phenoxy)-acetic acid]
73 to 75 °C	COCCCc1cc(N(C)Cc2ccc(-c3ccc(OC(F)(F)F)cc3)nc2)ccc1OCC(=O)O [Example 14, (2-(3-Methoxy-propyl)-4-{methyl-[6-(4-trifluoromethoxy-phenyl)-pyridin-3-ylmethyl]-amino}-phenoxy)-acetic acid]
199 °C	Cc1cc(N(C)Cc2ccc(-c3ccc(C(F)(F)F)cc3)nc2)ccc1OCC(=O)O [Example 15, (2-Methyl-4-{methyl-[6-(4-trifluoromethyl-phenyl)-pyridin-3-ylmethyl]-amino}-phenoxy)-acetic acid]
72 to 76 °C	COCCCc1cc(N(C)Cc2ccc(-c3ccc(C(F)(F)F)cc3)nc2)ccc1OCC(=O)O [Example 16, (2-(3-Methoxy-propyl)-4-{methyl-[6-(4-trifluoromethyl-phenyl)-pyridin-3-ylmethyl]-amino}-phenoxy)-acetic acid]
141 to 143 °C	Cc1cc(OCc2ccc(-c3ccc(F)c(C(F)(F)F)c3)nc2C)ccc1OC(C)(C)C(=O)O [Example 24, 2-{4-[6-(4-Fluoro-3-trifluoromethyl-phenyl)-2-methyl-pyridin-3-ylmethoxy]-2-methyl-phenoxy}-2-methyl-propionic acid]
164 to 165 °C	Cc1cc(OCc2ccc(-c3ccc(C(F)(F)F)cc3)nc2C)ccc1OC(C)(C)C(=O)O [Example 34, 2-Methyl-2-{2-methyl-4-[2-methyl-6-(4-trifluoromethyl-phenyl)-pyridin-3-ylmethoxy]-phenoxy}-propionic acid]
175 to 176 °C	Cc1cc(OCc2ccc(-c3ccc(C(F)(F)F)c(F)c3)nc2C)ccc1OC(C)(C)C(=O)O [Example 38, 2-{4-[6-(3-Fluoro-4-trifluoromethyl-phenyl)-2-methyl-pyridin-3-ylmethoxy]-2-methyl-phenoxy}-2-methyl-propionic acid]
149 to 151 °C	Cc1cc(OCc2ccc(-c3ccc(OC(F)(F)F)cc3)nc2C)ccc1OC(C)(C)C(=O)O [Example 39, 2-Methyl-2-{2-methyl-4-[2-methyl-6-(4-trifluoromethoxy-phenyl)-pyridin-3-ylmethoxy]-phenoxy}-propionic acid]
170 to 171 °C	Cc1cc(OCc2ccc(-c3ccc(C(F)(F)F)cc3)nc2C2CC2)ccc1OC(C)(C)C(=O)O [Example 40, 2-{4-[2-Cyclopropyl-6-(4-trifluoromethyl-phenyl)-pyridin-3-ylmethoxy]-2-methyl-phenoxy}-2-methyl-propionic acid]
191 to 192 °C	Cc1cc(OCc2ccc(-c3ccc(C(F)(F)F)cc3)nn2)ccc1OC(C)(C)C(=O)O [Example 44, 2-Methyl-2-{2-methyl-4-[6-(4-trifluoromethyl-phenyl)-pyridazin-3-ylmethoxy]-phenoxy]-propionic acid]
121 to 122 °C	COCc1nc(-c2ccc(C(F)(F)F)cc2)ccc1COc1ccc(OC(C)(C)C(=O)O)c(C)c1 [Example 45, 2-{4-[2-Methoxymethyl-6-(4-trifluoromethyl-phenyl)-pyridin-3-ylmethoxy]-2-methyl-phenoxy}-2-methyl-propionic acid]
122 to 124 °C (dec.)	CCOCCc1nc(-c2ccc(C(F)(F)F)nc2)ncc1COc1ccc(OC(C)(C)C(=O)O)c(C)c1 [Example 101, 2-{4-[4-(2-Ethoxy-ethyl)-2-(6-trifluoromethyl-pyridin-3-yl)-pyrimidin-5-ylmethoxy]-2-methyl-phenoxy}-2-methyl-propionic acid]
140.5 to 141.5 °C (dec.)	COCCc1nc(-c2ccc(C(F)(F)F)nc2)ncc1COc1ccc(OC(C)(C)C(=O)O)c(C)c1 [Example 102, 2-{4-[4-(2-Methoxy-ethyl)-2-(6-trifluoromethyl-pyridin-3-yl)-pyrimidin-5-ylmethoxy]-2-methyl-phenoxy}-2-methyl-propionic acid]
187 to 188 °C (dec.)	Cc1cc(OCc2cnc(-c3ccc(C(F)(F)F)nc3)nc2CCO)ccc1OC(C)(C)C(=O)O [Example 103, 2-{4-[4-(2-Hydroxy-ethyl)-2-(6-trifluoromethyl-pyridin-3-yl)-pyrimidin-5-ylmethoxy]-2-methyl-phenoxy}-2-methyl-propionic acid]
120 to 121 °C	COCc1nc(-c2ccc(C(F)(F)F)cc2)ncc1COc1ccc(OC(C)(C)C(=O)O)c(C)c1 [Example 104, 2-{4-[4-Methoxymethyl-2-(4-trifluoromethyl-phenyl)-pyrimidin-5-ylmethoxy]-2-methyl-phenoxy}-2-methyl-propionic acid]
185 to 185.5 °C	Cc1cc(OCc2cnc(-c3ccc(C(F)(F)F)nc3)nc2C2CC2)ccc1OC(C)(C)C(=O)O [Example 105, 2-{4-[4-Cyclopropyl-2-(6-trifluoromethyl-pyridin-3-yl)-pyrimidin-5-ylmethoxy]-2-methyl-phenoxy}-2-methyl-propionic acid]
